How the values were obtained:
Format in all cases: cell-based
human corneas = system: human corneas
Procedure: Human corneas were obtained from the Lions Eye Bank of Delaware Valley. Rabbit corneas were excised from intact fresh eyeballs of young (8-12 weeks) albino rabbits (Pel-Freez Biologicals, Rogers, Ark.). Protocol (Alekseev et al., 2012, J Vis Exp 69:e3631) for ex vivo corneal culture, infection, and treatment was followed closely. Briefly, corneoscleral buttons were excised and rinsed in PBS containing 200 U/mL penicillin and 200 μg/mL streptomycin. The endothelial concavity was filled with culture medium containing 1% low melting temperature agarose. The corneas were cultured epithelial side up in MEM medium supplemented with nonessential amino acids (1×), 2 mM […], 200 U/mL penicillin, and 200 μg/mL streptomycin. The next day, they were infected with 1×10^4 plaque forming units (PFU)/cornea of strain KOS HSV-1 for 1 hour, rinsed, and overlaid with fresh medium. Drug treatments were administered at the same concentrations as for cultured cells. For KU-55933 bioavailability assessment, corneas were treated with bleomycin (200 μg/mL) for 1 hour. The epithelial cell layer was collected by scraping to isolate DNA or protein. […] Treatment toxicity was assessed by briefly staining the cornea with fluorescein (1% wt/vol in PBS) and imaging the epithelial defects with 464-nm wavelength blue light (LDP LLC, Carlstadt, N.J.).

HSV-1 = assay: Time-of-addition of KU-55933 in HSV-1 infected hTCEpi cells (Western blot gC, qRT-PCR genome); details: MOI 1, KU-55933 10 μM, read at 8 hpi
Procedure: Standard protocol was followed for Western blot analysis. Cell lysates were collected in Laemmli buffer, vortexed, and boiled at 95° C. for 5 min. Protein concentrations were measured by reducing agent-compatible BCA assay. SDS-PAGE was followed by transfer onto a PVDF membrane, which was then blocked in 5% BSA. Primary antibody staining was performed overnight and blots were visualized on film or with the Odyssey near-infrared system (LI-COR, Lincoln, Nebr.). Primary antibodies against the following proteins were used: ICP0 (Virusys Corporation, Taneytown, Md.), ICP4, PML, and nucleolin (Santa Cruz Biotechnology, Santa Cruz, Calif.), ICP8, glycoproteins B and C, ATM and pATM-Ser1981 (Rockland, Gilbertsville, Pa.), Chk2 and pChk2-Thr68 (Cell Signaling, Danvers, Mass.).
Total DNA was isolated from infected cells using the DNeasy Blood & Tissue Kit (QIAGEN, Hilden, Germany). Real time quantitative PCR was performed with SYBR Green (Bio-Rad, Hercules, Calif.). Target primers for UL30 (DNA polymerase catalytic subunit) and reference primers for GAPDH were used to measure genome replication. Primer sequences were provided in Alekseev et al., 2014, Invest. Ophthalm. Vis. Sci. 55:706-715). Real time PCR data were processed using the ΔΔC(t) method.
hTCEpi, EPC2, and OKF6 are normal human epithelial cells from cornea, esophagus, and palate, respectively. […]

[1] = system: dlsptk strain of HSV-1 (TK mutant); assay: qPCR of genome replication of drug-resistant HSV-1 in hTCEpi cells
Procedure: All cells were cultured at 37° C. and 5% CO2 and supplemented with 100 U/mL penicillin and […]. Human corneal epithelial cells immortalized with hTERT (hTCEpi; Robertson, et al., 2005, Invest Ophthalmol Vis Sci. 46:470-478) were grown in complete keratinocyte growth medium 2 (KGM-2; Lonza, Basel, Switzerland). African green monkey kidney fibroblasts (CV-1; American Type Culture Collection, Manassas, Va.) were grown in Dulbecco's modified Eagle's medium (DMEM; Cellgro, Manassas, Va.) supplemented with 10% FBS. The KOS strain of HSV-1 was used in the in vitro and ex vivo infections, whereas McKrae strain was used for in vivo mouse experiments, and TK mutant dlsptk strain (Coen et al., 1989, Proc Natl Acad Sci USA 86:4736-4740) was used in the drug resistance experiments. All viral stocks were titered on CV-1 monolayers.
The following strains of HSV-1 were used: KOS, ICPO-null, HFEM, and tsB7. Subconfluent monolayers of cells were grown in six-well plates. Drug treatments were administered 45 minutes prior to infection and continued for the entire duration of each experiment. Unless indicated otherwise, KU-55933 (Batch No. 5, 99.7% purity; Tocris Bioscience, Bristol, UK) was used at 10 μM final concentration, phosphonoacetic acid (PAA) at 400 μg/mL (Sigma-Aldrich, St. Louis, Mo.), and acyclovir at 50 μg/mL (Sigma-Aldrich). KU-55933 was dissolved in dimethyl sulfoxide (DMSO), and the final concentration of DMSO in both KU-55933 and mock treatment in the in vitro and the ex vivo experiments was 0.1%.
Viral genome replication and transcription were measured by quantitative PCR (qPCR). Total DNA and RNA from infected cells were isolated using the DNeasy Blood & Tissue Kit and the RNeasy Mini Kit, respectively (QIAGEN, Hilden, Germany). RNA was converted to cDNA using qScript (Quanta BioSciences, Gaithersburg, Md.). […] Transcription of the three gene families was measured with primers for RL2 (ICPO), UL30 (DNA polymerase catalytic subunit), and UL44 (gC), with reference primers for the 18S ribosomal RNA (rRNA).

O=c1cc(-c2cccc3c2Sc2ccccc2S3)oc(N2CCOCC2)c1 [KU-55933, 2-(morpholin-4-yl)-6-(thianthren-1-yl)-pyran-4-one]
surface defects of explanted human corneas (human corneas): did not develop any surface defects
viral replication, treatment administered at 1 hpi and later (HSV-1): significantly less effect
viral replication, treatment started prior to the 1 hpi timepoint (HSV-1): notable reduction
genome replication of dlsptk strain (qPCR) ([1]; MOI 0.1, 16 hpi, KU-55933 10 μM, acyclovir 50 μg/mL): markedly suppress
inhibitory effect on dlsptk infection compared with KOS infection ([1]; MOI 0.1, KU-55933 10 μM, 16 hpi): as potent as its effect on KOS infection

From patent US20210023089A1, “Compositions Useful for Treating Herpes Simplex Keratitis, and Methods Using Same” (priority 2013, published 2021)
